{"source": "paper PMC12148480", "about": "(The Journal of Biological Chemistry, 2025)", "key": {"[1]": {"conditions": "cited from earlier work"}, "CaMKIIα [2]": {"biological_target": "CaMKIIα", "conditions": "CaMKIIα binding assays previously reported; cited from earlier work"}, "[3]": {"biological_target": "T1, rat brain cortical homogenates (Rattus norvegicus, UniProt P11275)", "T1 construct": "from tissue; host or cells: rat brain cortical homogenate", "assay": "[3H]NCS-382 binding to rat brain cortical homogenates"}, "CaMKIIα R433Q": {"biological_target": "T2, CaMKIIα R433Q (Rattus norvegicus, UniProt P11275, R433Q)", "T2 construct": "host or cells: HEK293T whole-cell homogenate", "T2 sequence (P11275 whole entry R433Q)": "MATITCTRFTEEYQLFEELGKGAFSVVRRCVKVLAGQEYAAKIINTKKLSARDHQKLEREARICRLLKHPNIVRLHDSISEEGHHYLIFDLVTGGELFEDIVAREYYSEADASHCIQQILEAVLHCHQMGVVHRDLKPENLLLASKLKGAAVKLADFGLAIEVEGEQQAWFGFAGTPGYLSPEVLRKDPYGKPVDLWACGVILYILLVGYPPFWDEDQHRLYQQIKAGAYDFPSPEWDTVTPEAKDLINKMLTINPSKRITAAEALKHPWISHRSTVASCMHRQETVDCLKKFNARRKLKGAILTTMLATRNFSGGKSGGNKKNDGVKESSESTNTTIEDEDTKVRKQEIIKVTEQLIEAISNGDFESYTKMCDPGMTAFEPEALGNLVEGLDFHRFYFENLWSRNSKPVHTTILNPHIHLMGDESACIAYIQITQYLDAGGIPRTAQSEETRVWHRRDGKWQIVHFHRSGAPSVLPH", "assay": "[3H]HOCPCA binding, HEK293T whole-cell homogenate, CaMKIIα R433Q", "conditions": "40 nM radioligand", "protocol": "(§1) Recombinant HEK293T whole-cell homogenate equilibrium binding experiments were performed similar to that described previously ([14]), using a 48-well assay format. […] The binding reaction was terminated by precipitation with ice-cold acetone (1 h at −20 °C), and radioligand-bound protein was separated from free radioligand by vacuum-filtration through glass fibre (GF/C) filters. Counts (disintegrations per minute [DPM]) were detected by liquid scintillation counting ([14]). Counts for CaMKIIα WT typically ranged from 2000 to 6000 DPM with [^3H]HOCPCA and 1800 to 5000 DPM with [^3H]O-5-HDC, slightly lower for the CaMKIIβ […] mutant. All experiments were performed in technical triplicates using at least three different batches of HEK293T cell homogenates.\n(§2) Data analysis: The specific binding was determined as Total binding subtracted NSB. For the pooling of data from recombinant binding, the specific binding of the variant was normalized to the specific binding of CaMKIIα WT within each experiment."}, "CaMKIIα R469Q": {"biological_target": "T3, CaMKIIα R469Q (Rattus norvegicus, UniProt P11275, R469Q)", "T3 construct": "host or cells: HEK293T whole-cell homogenate", "T3 sequence (P11275 whole entry R469Q)": "as the sequence (P11275 whole entry R433Q) above, with Q433R, R469Q counted along it", "assay": "[3H]HOCPCA binding, HEK293T whole-cell homogenate, CaMKIIα R469Q", "conditions": "40 nM radioligand", "protocol": "as §1, §2"}, "CaMKIIα H395A": {"biological_target": "T4, CaMKIIα H395A (Rattus norvegicus, UniProt P11275, H395A)", "T4 construct": "host or cells: HEK293T whole-cell homogenate", "T4 sequence (P11275 whole entry H395A)": "as the sequence (P11275 whole entry R433Q) above, with H395A, Q433R counted along it", "assay": "[3H]HOCPCA binding, HEK293T whole-cell homogenate, CaMKIIα H395A", "conditions": "normalized to CaMKIIα WT", "protocol": "as §1, §2"}, "CaMKIIα R453Q": {"biological_target": "T5, CaMKIIα R453Q (Rattus norvegicus, UniProt P11275, R453Q)", "T5 construct": "host or cells: HEK293T whole-cell homogenate", "T5 sequence (P11275 whole entry R453Q)": "as the sequence (P11275 whole entry R433Q) above, with Q433R, R453Q counted along it", "assay": "[3H]HOCPCA binding, HEK293T whole-cell homogenate, CaMKIIα R453Q", "conditions": "normalized to CaMKIIα WT", "protocol": "as §1, §2"}, "[4]": {"biological_target": "T6, CaMKIIα R433Q/R453Q/R469Q (Rattus norvegicus, UniProt P11275, R433Q/R453Q/R469Q)", "T6 construct": "host or cells: HEK293T whole-cell homogenate", "T6 sequence (P11275 whole entry R433Q/R453Q/R469Q)": "as the sequence (P11275 whole entry R433Q) above, with R453Q, R469Q counted along it", "assay": "[3H]HOCPCA binding, HEK293T whole-cell homogenate, CaMKIIα triple mutant", "conditions": "CaMKIIα triple mutant RRR433/453/469QQQ", "protocol": "as §1, §2"}, "CaMKIIα W403L": {"biological_target": "T7, CaMKIIα W403L (Rattus norvegicus, UniProt P11275, W403L)", "T7 construct": "host or cells: HEK293T whole-cell homogenate", "T7 sequence (P11275 whole entry W403L)": "as the sequence (P11275 whole entry R433Q) above, with W403L, Q433R counted along it", "assay": "[3H]HOCPCA binding, HEK293T whole-cell homogenate, CaMKIIα W403L", "conditions": "p = 0.0038", "protocol": "as §1, §2"}, "CaMKIIβ C533R": {"biological_target": "T8, CaMKIIβ C533R (Rattus norvegicus, UniProt P08413, C533R)", "T8 construct": "host or cells: HEK293T whole-cell homogenate", "T8 sequence (P08413 whole entry C533R)": "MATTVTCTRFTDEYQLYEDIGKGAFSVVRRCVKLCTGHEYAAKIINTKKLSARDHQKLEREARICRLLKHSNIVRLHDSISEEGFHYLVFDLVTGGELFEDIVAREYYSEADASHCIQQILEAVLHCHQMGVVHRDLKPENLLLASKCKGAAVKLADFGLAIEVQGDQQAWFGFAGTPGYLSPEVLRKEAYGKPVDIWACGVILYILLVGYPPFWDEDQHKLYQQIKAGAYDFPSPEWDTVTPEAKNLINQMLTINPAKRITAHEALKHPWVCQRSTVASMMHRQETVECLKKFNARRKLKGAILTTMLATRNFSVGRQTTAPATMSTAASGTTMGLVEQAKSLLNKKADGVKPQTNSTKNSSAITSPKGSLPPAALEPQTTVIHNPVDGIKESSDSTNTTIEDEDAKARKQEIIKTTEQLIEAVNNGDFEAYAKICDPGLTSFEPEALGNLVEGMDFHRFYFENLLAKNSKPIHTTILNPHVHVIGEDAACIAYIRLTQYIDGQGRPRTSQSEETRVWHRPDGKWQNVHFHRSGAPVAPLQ", "assay": "[3H]HOCPCA binding, HEK293T whole-cell homogenate, CaMKIIβ C533R", "protocol": "as §1, §2"}, "CaMKIIγ C518R": {"biological_target": "T9, CaMKIIγ C518R (Rattus norvegicus, UniProt P11730, C518R)", "T9 construct": "host or cells: HEK293T whole-cell homogenate", "T9 sequence (P11730 whole entry C518R)": "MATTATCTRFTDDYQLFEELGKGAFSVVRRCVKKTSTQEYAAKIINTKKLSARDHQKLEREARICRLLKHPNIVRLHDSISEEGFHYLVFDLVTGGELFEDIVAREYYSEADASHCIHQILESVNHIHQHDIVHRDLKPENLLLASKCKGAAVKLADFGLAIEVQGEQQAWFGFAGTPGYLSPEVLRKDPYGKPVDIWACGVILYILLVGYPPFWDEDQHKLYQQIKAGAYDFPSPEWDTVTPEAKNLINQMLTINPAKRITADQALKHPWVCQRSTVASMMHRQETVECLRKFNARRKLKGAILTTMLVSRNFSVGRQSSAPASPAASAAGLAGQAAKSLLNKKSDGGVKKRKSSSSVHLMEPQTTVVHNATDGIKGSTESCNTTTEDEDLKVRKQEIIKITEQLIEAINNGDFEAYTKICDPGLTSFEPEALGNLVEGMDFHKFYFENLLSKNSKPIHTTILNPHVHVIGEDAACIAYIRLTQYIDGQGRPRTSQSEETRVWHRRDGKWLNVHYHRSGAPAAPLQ", "assay": "[3H]HOCPCA binding, HEK293T whole-cell homogenate, CaMKIIγ C518R", "protocol": "as §1, §2"}, "CaMKIIβ L467W": {"biological_target": "T10, CaMKIIβ L467W (Rattus norvegicus, UniProt P08413, L467W)", "T10 construct": "host or cells: HEK293T whole-cell homogenate", "T10 sequence (P08413 whole entry L467W)": "as the sequence (P08413 whole entry C533R) above, with L467W, R533C counted along it", "assay": "[3H]HOCPCA binding, HEK293T whole-cell homogenate, CaMKIIβ L467W", "protocol": "as §1, §2"}, "CaMKIIβ L467W/C533R [5]": {"biological_target": "T11, CaMKIIβ L467W/C533R (Rattus norvegicus, UniProt P08413, C533R/L467W)", "T11 construct": "host or cells: HEK293T whole-cell homogenate", "T11 sequence (P08413 whole entry L467W/C533R)": "as the sequence (P08413 whole entry C533R) above, with L467W counted along it", "assay": "[3H]HOCPCA binding, HEK293T whole-cell homogenate, CaMKIIβ L467W/C533R", "protocol": "as §1, §2"}, "CaMKIIβ WT": {"biological_target": "T12, CaMKIIβ WT (Rattus norvegicus, UniProt P08413)", "T12 construct": "host or cells: HEK293T whole-cell homogenate", "assay": "[3H]HOCPCA binding, HEK293T whole-cell homogenate, CaMKIIβ WT", "protocol": "as §1, §2"}, "[6]": {"test_system": "CaMKIIα (rat cortical homogenate)", "set-up": "method as in earlier work", "conditions": "comparative value, [3H]HOCPCA binding, ref 1 (Leurs et al., PNAS 2021); cited from earlier work"}, "CaMKIIβ L467W/C533R [7]": {"biological_target": "T11, CaMKIIβ L467W/C533R", "assay": "Displacement of [3H]O-5-HDC binding in CaMKIIβ L467W/C533R HEK293T homogenate", "protocol": "as §1, §2\nSpecific binding (% of control)=Top-Bottom1+10(log(IC50-[compound]))\nwhere top and bottom represent the upper and lower plateaus of the curve, respectively."}, "CaMKIIα [8]": {"test_system": "CaMKIIα", "conditions": "cited from earlier work"}, "ischemia": {"test_system": "ischemia", "conditions": "several mouse models of ischemia; cited from earlier work"}, "[9]": {"biological_target": "native CaMKIIα (rat cortical homogenate) (Rattus norvegicus, UniProt P11275)", "sequence (P11275 whole entry)": "as the sequence (P11275 whole entry R433Q) above, with Q433R counted along it", "assay": "Competitive inhibition of [3H]O-5-HDC binding, rat cortical homogenate", "set-up": "native CaMKIIα (rat cortical homogenate); from tissue; host or cells: rat cerebral cortex homogenate", "source_text": "Ki values were obtained from the One Site-Fit Ki model utilizing the following Cheng-Prusoff equation: […]\nWhere [RL] represents the specific radioligand concentration from each experiment and KD is the dissociation constant of [^3H]O-5-HDC acquired from saturation curves."}, "CaMKIIα-WT hub protein": {"biological_target": "CaMKIIα-WT hub protein", "set-up": "method as in PMID 39275999", "conditions": "SPR, purified CaMKIIα-WT hub; cited from earlier work"}, "[10]": {"biological_target": "CaMKIIα-W403L hub protein", "set-up": "method as in PMID 39275999", "conditions": "SPR, purified CaMKIIα-W403L hub; cited from earlier work"}, "[11]": {"biological_target": "CaMKIIα (rat cortical homogenate)", "conditions": "inhibition of [3H]HOCPCA binding, ref 1 (Leurs et al., PNAS 2021); read-out: Comparative Ki, [3H]HOCPCA binding; cited from earlier work"}}, "note": "“Also recorded” adds a separate entry of the source."}
{"smiles": "O=C(O)Cc1cc(O)ccc1Nc1c(Cl)cccc1Cl", "note": "[5-HDC, 5-hydroxydiclofenac]", "values": [{"measurement": "chemical stability", "setting": "[1]", "value": "chemically unstable"}]}
{"smiles": "O=C(O)Cc1cc(O)ccc1Oc1ccccc1Cl", "values": [{"measurement": "Ki", "setting": "CaMKIIα [2]", "value": 27, "unit": "nM"}]}
{"smiles": "O=C(O)Cc1cc(O)c(I)cc1Oc1ccccc1Cl", "note": "[compound 1]", "values": [{"measurement": "affinity", "setting": "[3]", "value": "mid-micromolar"}, {"measurement": "change in affinity in comparison to O-5-HDC", "setting": "[3]", "value": 100, "unit": "X"}]}
{"smiles": "[3H]C1(O)C=C(C(=O)O)CC1", "note": "(stereo not drawn) [[^3H]HOCPCA]", "values": [{"measurement": "specific [3H]HOCPCA binding", "setting": "CaMKIIα R433Q", "value": "completely abolished"}, {"measurement": "specific [3H]HOCPCA binding", "setting": "CaMKIIα R469Q", "value": "completely abolished"}, {"measurement": "specific [3H]HOCPCA binding remaining", "setting": "CaMKIIα H395A", "value": "7–9%"}, {"measurement": "specific [3H]HOCPCA binding remaining", "setting": "CaMKIIα R453Q", "value": "7–9%"}, {"measurement": "specific [3H]HOCPCA binding", "setting": "[4]", "value": "completely binding-deficient"}, {"measurement": "specific [3H]HOCPCA binding", "setting": "CaMKIIα W403L", "value": "70 % of WT"}, {"measurement": "specific [3H]HOCPCA binding", "setting": "CaMKIIβ C533R", "value": "no specific binding"}, {"measurement": "specific [3H]HOCPCA binding", "setting": "CaMKIIγ C518R", "value": "no specific binding"}, {"measurement": "specific [3H]HOCPCA binding", "setting": "CaMKIIβ L467W", "value": "no detected specific [^3H]HOCPCA binding; also recorded: Neither of these led to any noticeable radioligand binding"}, {"measurement": "specific [3H]HOCPCA binding", "setting": "CaMKIIβ L467W/C533R [5]", "value": "no detected specific [^3H]HOCPCA binding; also recorded: Neither of these led to any noticeable radioligand binding"}, {"measurement": "specific [3H]HOCPCA binding", "setting": "CaMKIIβ WT", "value": "no detected specific [^3H]HOCPCA binding"}, {"measurement": "Bmax", "setting": "[6]", "value": 43, "unit": "pmol/mg protein"}, {"measurement": "Kd", "setting": "[6]", "value": 260, "unit": "nM"}, {"measurement": "pKd ± SEM", "setting": "[6]", "value": "6.6 ± 0.06"}]}
{"smiles": "O=C(O)Cc1c(Oc2ccccc2Cl)cc(I)c(O)c1I", "note": "[compound 2]", "values": [{"measurement": "affinity", "setting": "[3]", "value": "mid-micromolar"}, {"measurement": "change in affinity in comparison to O-5-HDC", "setting": "[3]", "value": 100, "unit": "X"}]}
{"smiles": "O=C(O)CCCO", "note": "[GHB, γ-hydroxybutyric acid]", "values": [{"measurement": "IC50", "setting": "CaMKIIβ L467W/C533R [7]; IC50, displacement of [3H]O-5-HDC", "value": 710000, "unit": "nM"}, {"measurement": "IC50", "setting": "CaMKIIβ L467W/C533R [7]; pIC50 (value in parentheses after IC50), displacement of [3H]O-5-HDC", "value": 676000, "unit": "nM"}, {"measurement": "effect on CaMKIIα activity (syntide-2 phosphorylation)", "setting": "CaMKIIα [8]", "value": "not to affect CaMKIIα activity"}, {"measurement": "neuroprotection", "setting": "ischemia", "value": "neuroprotective"}, {"measurement": "lower affinity in displacing [3H]O-5-HDC than [3H]HOCPCA", "setting": "[9]; rat cortical homogenate", "value": 10, "unit": "fold"}]}
{"smiles": "O=C(O)Cc1cn2nc(-c3ccc(Cl)cc3)ccc2n1", "note": "[PIPA]", "values": [{"measurement": "Kd", "setting": "CaMKIIα-WT hub protein", "value": 1400, "unit": "nM"}, {"measurement": "Kd", "setting": "[10]", "value": 2800, "unit": "nM"}]}
{"smiles": "O=C(O)C1=CC(O)CC1", "note": "(stereo not drawn) [HOCPCA, 3-hydroxycyclopent-1-enecarboxylic acid]", "values": [{"measurement": "Ki", "setting": "[11]", "value": 130, "unit": "nM"}, {"measurement": "effect on CaMKIIα activity (syntide-2 phosphorylation)", "setting": "CaMKIIα [8]", "value": "not to affect CaMKIIα activity"}, {"measurement": "neuroprotection", "setting": "ischemia", "value": "neuroprotective"}, {"measurement": "Ki", "setting": "[9]; Ki", "value": 1270, "unit": "nM"}, {"measurement": "Ki", "setting": "[9]; pKi ± S.E.M., inhibition of [3H]O-5-HDC binding, rat cortical homogenate, n = 4", "value": 1170, "unit": "nM"}, {"measurement": "lower affinity in displacing [3H]O-5-HDC than [3H]HOCPCA", "setting": "[9]; rat cortical homogenate", "value": 10, "unit": "fold"}]}
